From patent US11103448B2, “Manufacture of pharmaceutical compositions” (VECTURA LIMITED, priority 2003, dated 2021)

Assay: Particle size distribution by Malvern particle sizer (dry powder)
Assay type: physicochemical
Method: The particle size distributions of these powdered materials indicate both the level of size reduction obtained by the co-milling, and the level of dispersion efficiency at varied pressures. The d(50) and d(97) plots provide a further indication of this dispersibility of the powders as a function of pressure.
Particle size distributions of the raw materials and selected formulations were determined by Malvern particle sizer, via the Scirroco dry powder disperser.
Twelve formulations were produced from the original powder, using the Hosokawa AS50 jet mill. Either the pure drug was passed through the mill or a blend of drug with 5% w/w of a force control agent added. The mill was used with a range of parameters. Primarily, these were injector air pressure, grinding air pressure and powder feed rate.

CN1C(=O)CC(=O)N(c2ccccc2)c2cc(Cl)ccc21 [clobozam]
d(50) (clobozam after co-jet milling): about 1 μm
d(50) (clobozam before co-jet milling): about 2.6 μm
